Data: PMC6766871 (International Journal of Cancer, 2019)
Where two headings read alike, the source gives them in different places.

Experiments:
[1] = system: FGFR1-amplified squamous NSCLC; conditions: initial clinical results; cited from earlier work
[2] = system: LU299 human lung cancer PDX; assay: antitumor efficacy, patient-derived LU299 lung cancer xenograft in nu/nu mice; conditions: 33 days
[3] = system: DMS-114 human SCLC xenograft; assay: antitumor efficacy, DMS-114 lung cancer xenograft in NMRI nu/nu mice; conditions: for T/C volume: rogaratinib 50 mg/kg BID p.o., docetaxel 30 mg/kg Q7D i.v., carboplatin 80 mg/kg Q7D / paclitaxel 24 mg/kg Q7D i.p., 10 days
[4] = body weight monitoring in tumor-bearing mice; format: in vivo, mouse
LXFL1121 human NSCLC PDX = assay: antitumor efficacy, patient-derived LXFL1121 NSCLC xenograft in NMRI nu/nu mice
[5] = system: p-ERK1/2 in NCI-H716 cells; assay: Western blot, ERK1/2 phosphorylation; format: cell-based, human; conditions: NCI-H716, 100 nM
77 non-kinase targets = assay: PanLabs Safety screen, whole panel; conditions: 10 µM
CSF1R [6] = molecular target: T1, CSF1R (Homo sapiens, UniProt P07333); assay: KINOMEscan competition binding; conditions: 100 nM rogaratinib
[7] = body weight monitoring in tumor-bearing rats; format: in vivo, rat; conditions: C51 model, nude rats, monotherapy
[8] = system: pERK1/2 (T202/Y204,T185/Y187) in MFM-223 cells; assay: FGF2-induced ERK1/2 phosphorylation, MSD-ELISA; format: cell-based; conditions: Homo sapiens, MFM-223, read-out: IC50 pERK1/2 (T202/Y204,T185/Y187)
FGFR2 [9] = molecular target: T2, FGFR2 (Homo sapiens, UniProt P21802); assay: KINOMEscan competition binding
[10] = system: pERK1/2 (T202/Y204,T185/Y187) in DMS-114 cells; assay: FGF2-induced ERK1/2 phosphorylation, MSD-ELISA; format: cell-based; conditions: Homo sapiens, DMS-114, read-out: IC50 pERK1/2 (T202/Y204,T185/Y187)
[11] = system: pERK1/2 (T202/Y204,T185/Y187) in C51 cells; assay: ERK1/2 phosphorylation, MSD-ELISA; format: cell-based; conditions: Mus musculus, read-out: IC50 pERK1/2 (T202/Y204,T185/Y187)
[12] = system: p-FGFR2 and p-ERK1/2 in NCI-H716 tumors; assay: PK/PD, phosphorylation of FGFR2 and ERK1/2 in NCI-H716 tumor tissue; format: in vivo, mouse
VEGF-A-stimulated HUVEC = assay: HUVEC growth assay, VEGF-A-stimulated; format: cell-based, human; conditions: for IC50: Homo sapiens, 72 h
FGF2-stimulated HUVEC = assay: HUVEC growth assay, FGF2-stimulated; format: cell-based; conditions: Homo sapiens, 72 h, read-out: IC50 inhibition of FGF2-stimulated growth
VEGFR3 [13] = molecular target: T3, VEGFR3 (Homo sapiens, UniProt P35916); assay: kinase inhibition assay; format: biochemical
[14] = maximally tolerated dose in Balb/cJ mice; format: in vivo, mouse
[15] = system: p-ERK1/2 in UM-UC-3 cells; assay: Western blot, ERK1/2 phosphorylation; format: cell-based, human; conditions: UM-UC-3, 0–10,000 nM
CSF1R [16] = molecular target: T1, CSF1R; assay: kinase inhibition assay; format: biochemical
[17] = system: p-ERK1/2 in MDA-MB-453 cells; assay: Western blot, ERK1/2 phosphorylation; format: cell-based, human; conditions: MDA-MB-453, 0–1,000 nM, 2 h
[18] = system: p-FGFR2 in NCI-H716 cells; assay: Western blot, FGFR2 auto-phosphorylation; format: cell-based, human; conditions: NCI-H716, 100 nM
[19] = system: NCI-H716 human colon cancer xenograft; assay: antitumor efficacy, NCI-H716 colorectal xenograft in NMRI nu/nu mice; conditions: 50 mg/kg BID; 1/8 mice
[20] = system: p-ERK1/2 in NCI-H520 cells; assay: Western blot, ERK1/2 phosphorylation; format: cell-based, human; conditions: NCI-H520, 0–10,000 nM
C51 colon tumors [21] = assay: antitumor efficacy, syngeneic C51 colon cancer model in BALB/cJ mice; conditions: for partial response (PR) rate (RECIST): 2/9 mice
FGFR2 [22] = molecular target: T2, FGFR2; assay: radiometric kinase activity assay; format: biochemical
468 kinase targets = assay: KINOMEscan profiling, kinase panel; format: binding; conditions: of 403 non-mutant kinases
p-ERK1/2 in RT-112 cells = assay: Western blot, ERK1/2 phosphorylation; format: cell-based, human; conditions: RT-112, 0–10,000 nM
VEGFR3 [23] = molecular target: T3, VEGFR3; assay: KINOMEscan competition binding
[24] = system: p-ERK1/2 in NCI-H1581 cells; assay: Western blot, ERK1/2 phosphorylation; format: cell-based, human; conditions: NCI-H1581, 0–10,000 nM
TIE2 = TIE2 (Homo sapiens, UniProt Q02763); assay: kinase inhibition assay; format: biochemical
[25] = plasma pharmacokinetics in NCI-H716 tumor-bearing NMRI nu/nu mice
C51 colon tumors [26] = assay: antitumor efficacy, C51 colon cancer model in nude rats
[27] = system: p-FGFR4 in MDA-MB-453 cells; assay: Western blot, FGFR4 auto-phosphorylation; format: cell-based, human; conditions: MDA-MB-453, 0–1,000 nM, 2 h
VEGFR1 = VEGFR1 (Homo sapiens, UniProt P17948); assay: KINOMEscan competition binding
Sequence of VEGFR1 (P17948 27-1338): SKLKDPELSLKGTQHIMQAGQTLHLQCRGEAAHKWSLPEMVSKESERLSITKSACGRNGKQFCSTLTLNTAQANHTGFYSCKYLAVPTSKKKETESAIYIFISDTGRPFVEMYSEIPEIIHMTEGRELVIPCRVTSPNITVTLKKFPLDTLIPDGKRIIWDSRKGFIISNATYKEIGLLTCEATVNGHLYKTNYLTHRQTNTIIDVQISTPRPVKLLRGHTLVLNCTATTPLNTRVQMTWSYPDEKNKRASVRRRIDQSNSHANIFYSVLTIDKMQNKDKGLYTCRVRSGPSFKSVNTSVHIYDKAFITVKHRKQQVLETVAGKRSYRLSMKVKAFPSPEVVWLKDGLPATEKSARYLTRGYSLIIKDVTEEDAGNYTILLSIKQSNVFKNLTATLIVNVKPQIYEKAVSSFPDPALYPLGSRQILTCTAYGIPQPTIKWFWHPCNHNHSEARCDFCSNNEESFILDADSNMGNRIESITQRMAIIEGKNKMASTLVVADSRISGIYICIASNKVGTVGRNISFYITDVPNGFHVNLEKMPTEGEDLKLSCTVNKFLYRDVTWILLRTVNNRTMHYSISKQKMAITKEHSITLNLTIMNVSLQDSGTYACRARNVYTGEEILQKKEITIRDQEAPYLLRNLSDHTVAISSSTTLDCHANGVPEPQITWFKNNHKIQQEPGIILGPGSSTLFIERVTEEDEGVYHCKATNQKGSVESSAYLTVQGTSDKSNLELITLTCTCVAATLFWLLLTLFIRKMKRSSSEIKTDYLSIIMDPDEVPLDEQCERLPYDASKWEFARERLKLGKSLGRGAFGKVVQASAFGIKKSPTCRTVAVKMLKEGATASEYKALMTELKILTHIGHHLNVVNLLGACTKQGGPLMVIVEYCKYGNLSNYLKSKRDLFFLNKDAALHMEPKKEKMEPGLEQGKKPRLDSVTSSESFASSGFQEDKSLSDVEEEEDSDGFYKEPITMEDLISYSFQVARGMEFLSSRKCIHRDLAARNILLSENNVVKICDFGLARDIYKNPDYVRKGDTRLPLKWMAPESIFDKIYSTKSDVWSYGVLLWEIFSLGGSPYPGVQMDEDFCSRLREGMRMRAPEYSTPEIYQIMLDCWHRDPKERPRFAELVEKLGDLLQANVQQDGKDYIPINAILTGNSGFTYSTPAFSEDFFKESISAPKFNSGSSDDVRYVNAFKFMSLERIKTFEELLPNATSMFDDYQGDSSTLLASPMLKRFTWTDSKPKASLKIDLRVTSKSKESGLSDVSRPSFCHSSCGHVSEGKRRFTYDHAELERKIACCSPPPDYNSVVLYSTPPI

T3 sequence (P35916 25-1363): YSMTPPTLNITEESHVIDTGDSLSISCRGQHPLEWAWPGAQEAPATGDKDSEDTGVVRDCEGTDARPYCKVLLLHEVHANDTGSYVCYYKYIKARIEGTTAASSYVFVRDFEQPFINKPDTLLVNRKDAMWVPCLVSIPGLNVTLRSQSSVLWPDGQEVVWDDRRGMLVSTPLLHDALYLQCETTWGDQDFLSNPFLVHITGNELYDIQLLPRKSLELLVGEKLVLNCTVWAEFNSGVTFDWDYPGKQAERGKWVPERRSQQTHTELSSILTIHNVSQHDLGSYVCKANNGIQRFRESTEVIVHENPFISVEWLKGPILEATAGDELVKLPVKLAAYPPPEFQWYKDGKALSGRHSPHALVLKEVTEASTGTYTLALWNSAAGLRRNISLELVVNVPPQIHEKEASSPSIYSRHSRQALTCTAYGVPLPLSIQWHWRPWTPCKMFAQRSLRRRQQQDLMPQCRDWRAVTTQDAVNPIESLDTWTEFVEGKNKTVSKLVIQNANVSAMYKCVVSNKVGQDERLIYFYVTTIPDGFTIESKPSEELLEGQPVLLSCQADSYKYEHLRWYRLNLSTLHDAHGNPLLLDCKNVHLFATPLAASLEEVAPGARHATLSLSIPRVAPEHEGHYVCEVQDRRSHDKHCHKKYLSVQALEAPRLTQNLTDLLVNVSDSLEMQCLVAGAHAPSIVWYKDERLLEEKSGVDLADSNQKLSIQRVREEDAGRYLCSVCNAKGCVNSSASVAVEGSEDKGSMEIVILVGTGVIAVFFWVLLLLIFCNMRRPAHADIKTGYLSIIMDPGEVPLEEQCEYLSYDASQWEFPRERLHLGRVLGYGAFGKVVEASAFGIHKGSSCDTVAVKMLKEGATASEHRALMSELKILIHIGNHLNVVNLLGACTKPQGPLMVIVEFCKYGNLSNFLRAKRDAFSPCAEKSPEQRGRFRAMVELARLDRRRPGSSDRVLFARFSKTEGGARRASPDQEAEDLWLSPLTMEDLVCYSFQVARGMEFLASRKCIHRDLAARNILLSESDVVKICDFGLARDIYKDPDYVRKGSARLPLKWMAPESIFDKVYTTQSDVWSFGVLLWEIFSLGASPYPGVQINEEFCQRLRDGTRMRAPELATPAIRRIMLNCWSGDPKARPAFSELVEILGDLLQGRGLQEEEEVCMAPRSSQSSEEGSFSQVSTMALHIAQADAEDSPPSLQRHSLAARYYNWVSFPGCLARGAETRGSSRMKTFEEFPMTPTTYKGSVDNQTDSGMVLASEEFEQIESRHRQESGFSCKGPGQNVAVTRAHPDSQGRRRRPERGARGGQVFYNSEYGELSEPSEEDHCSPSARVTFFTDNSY
T2 sequence (P21802 481-770 limits assumed): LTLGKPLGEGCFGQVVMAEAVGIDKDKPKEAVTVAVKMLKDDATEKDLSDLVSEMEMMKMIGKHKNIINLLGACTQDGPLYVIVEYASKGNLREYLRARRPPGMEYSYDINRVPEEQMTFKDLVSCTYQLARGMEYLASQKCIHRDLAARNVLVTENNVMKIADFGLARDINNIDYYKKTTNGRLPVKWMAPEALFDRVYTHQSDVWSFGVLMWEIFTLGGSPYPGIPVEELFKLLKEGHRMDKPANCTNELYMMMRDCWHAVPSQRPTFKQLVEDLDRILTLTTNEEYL
T1 sequence (P07333 20-972): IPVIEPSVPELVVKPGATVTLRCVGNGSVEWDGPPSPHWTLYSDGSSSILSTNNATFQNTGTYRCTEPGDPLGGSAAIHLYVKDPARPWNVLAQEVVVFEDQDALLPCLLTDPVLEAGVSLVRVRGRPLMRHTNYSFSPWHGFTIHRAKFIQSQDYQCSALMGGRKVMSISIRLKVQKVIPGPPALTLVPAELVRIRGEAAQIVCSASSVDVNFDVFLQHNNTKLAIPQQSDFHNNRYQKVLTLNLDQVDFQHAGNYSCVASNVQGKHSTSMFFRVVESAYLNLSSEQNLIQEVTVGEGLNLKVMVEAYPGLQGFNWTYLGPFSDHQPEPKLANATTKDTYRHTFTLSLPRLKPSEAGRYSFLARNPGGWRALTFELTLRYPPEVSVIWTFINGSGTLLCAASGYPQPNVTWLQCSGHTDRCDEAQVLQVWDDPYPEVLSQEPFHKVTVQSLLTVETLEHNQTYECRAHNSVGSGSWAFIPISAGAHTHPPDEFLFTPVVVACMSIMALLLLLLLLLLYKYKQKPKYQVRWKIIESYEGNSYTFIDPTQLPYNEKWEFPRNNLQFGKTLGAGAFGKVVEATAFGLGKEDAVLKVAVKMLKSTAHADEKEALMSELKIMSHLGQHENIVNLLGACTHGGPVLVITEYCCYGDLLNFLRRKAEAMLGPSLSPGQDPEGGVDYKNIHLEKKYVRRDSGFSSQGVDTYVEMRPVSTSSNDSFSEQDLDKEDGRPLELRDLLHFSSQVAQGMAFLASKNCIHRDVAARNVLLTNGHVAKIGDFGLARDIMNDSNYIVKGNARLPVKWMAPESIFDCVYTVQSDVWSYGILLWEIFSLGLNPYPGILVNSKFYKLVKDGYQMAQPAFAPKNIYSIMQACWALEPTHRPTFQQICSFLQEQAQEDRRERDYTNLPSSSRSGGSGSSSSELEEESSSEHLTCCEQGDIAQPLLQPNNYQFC
Sequence of TIE2 (Q02763 23-1124): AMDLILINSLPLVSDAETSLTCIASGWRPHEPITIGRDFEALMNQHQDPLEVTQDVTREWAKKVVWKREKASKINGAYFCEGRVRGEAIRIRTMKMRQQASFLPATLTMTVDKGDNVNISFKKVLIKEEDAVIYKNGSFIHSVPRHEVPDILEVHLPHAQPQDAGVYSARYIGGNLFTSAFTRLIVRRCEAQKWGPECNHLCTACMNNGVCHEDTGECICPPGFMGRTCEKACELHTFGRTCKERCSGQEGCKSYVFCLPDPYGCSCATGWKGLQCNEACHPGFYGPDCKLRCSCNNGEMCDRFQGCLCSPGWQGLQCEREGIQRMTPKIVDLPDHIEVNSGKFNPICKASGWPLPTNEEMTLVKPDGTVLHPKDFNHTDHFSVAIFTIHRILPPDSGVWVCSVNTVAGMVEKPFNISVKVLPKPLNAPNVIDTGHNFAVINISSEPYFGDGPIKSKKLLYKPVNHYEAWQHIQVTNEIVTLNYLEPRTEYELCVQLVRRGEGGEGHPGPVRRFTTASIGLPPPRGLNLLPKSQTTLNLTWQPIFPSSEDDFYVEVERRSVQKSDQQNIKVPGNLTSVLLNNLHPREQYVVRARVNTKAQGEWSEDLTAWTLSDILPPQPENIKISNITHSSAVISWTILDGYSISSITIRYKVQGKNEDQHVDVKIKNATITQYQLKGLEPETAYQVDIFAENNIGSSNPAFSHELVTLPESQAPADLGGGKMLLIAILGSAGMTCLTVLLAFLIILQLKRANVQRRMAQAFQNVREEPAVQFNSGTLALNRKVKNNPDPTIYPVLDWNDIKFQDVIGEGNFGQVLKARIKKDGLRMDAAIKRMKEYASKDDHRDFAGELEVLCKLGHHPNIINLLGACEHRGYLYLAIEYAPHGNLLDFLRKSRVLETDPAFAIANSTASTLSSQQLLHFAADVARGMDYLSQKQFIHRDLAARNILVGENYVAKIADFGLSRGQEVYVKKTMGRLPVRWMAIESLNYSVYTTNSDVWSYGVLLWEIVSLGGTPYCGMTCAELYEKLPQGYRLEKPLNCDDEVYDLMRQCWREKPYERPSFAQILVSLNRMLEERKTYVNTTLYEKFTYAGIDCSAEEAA

CCN1CCN(c2ccc(Nc3cc(N(C)C(=O)Nc4c(Cl)c(OC)cc(OC)c4Cl)ncn3)cc2)CC1 [BGJ398, 3‐(2,6‐dichloro‐3,5‐dimethoxy‐phenyl)‐1‐{6‐[4‐(4‐ethyl‐piperazin‐1‐yl)‐phenylamino]‐pyrimidin‐4‐yl}‐1‐methyl‐urea]
response rate [1]: 11%

CC(=O)O[C@@]12CO[C@@H]1C[C@H](O)[C@@]1(C)C(=O)[C@H](O)C3=C(C)[C@@H](OC(=O)[C@H](O)[C@@H](NC(=O)OC(C)(C)C)c4ccccc4)C[C@@](O)([C@@H](OC(=O)c4ccccc4)[C@H]21)C3(C)C [docetaxel, reference compound]
PRs (RECIST) ([2]; rogaratinib 50 mg/kg BID, docetaxel Q7D i.v., n=10): 60%
T/C volume [3]: 0.27
PR rate ([3]; rogaratinib 50 mg/kg BID, docetaxel 30 mg/kg Q7D, carboplatin 80 mg/kg Q7D / paclitaxel 24 mg/kg Q7D): 40%
maximum body weight loss ([4]; DMS-114 model): 2.4%
maximum body weight losses ([4]; LU299 model): 14.1%
tumor response post-treatment (LXFL1121 human NSCLC PDX; drug-free observation period after treatment): tumor regrowth was observed

COCc1c(-c2cc3cc(C)cc(OC)c3s2)c2c(N)ncnn2c1CN1CCNC(=O)C1 [rogaratinib, 4‐{[4‐amino‐6‐(methoxymethyl)‐5‐(7‐methoxy‐5‐methyl‐1‐benzothiophen‐2‐yl)pyrrolo[2,1‐f][1,2,4]triazin‐7‐yl]methyl}piperazin‐2‐one]
T/C volume ([2]; 50 mg/kg BID p.o.): 0.33
T/C volume [3]: 0.34
phosphorylation of ERK1/2 [5]: effectively inhibited
number of significant hits in a set of 77 non-kinase targets (77 non-kinase targets): 3
inhibition of binding to CSF1R in KINOMEscan profiling (CSF1R [6]): strong inhibition
body weight losses [7]: ≤ 10%
IC50 [8]: 11 nM
Kd (FGFR2 [9]): 5 nM
IC50 [10]: 20 nM
IC50 [11]: 280 nM
FGFR2 and ERK1/2 phosphorylation levels in tumor ([12]; 24-h time point after single dose 35, 50 or 65 mg/kg): returned to levels similar to the vehicle control
FGFR2 and ERK1/2 phosphorylation levels in tumor ([12]; for at least five hours after single dose 35, 50 or 65 mg/kg): strong inhibition of FGFR signaling
body weight losses ([4]; C51 model, mice, monotherapy): ≤ 10%
maximum body weight loss ([4]; DMS-114 model): 5%
body weight losses ([4]; LU299 PDX model): ≤ 10%
body weight losses ([4]; LXFL1121 PDX model): ≤ 10%
maximum body weight loss ([4]; NCI-H716 model): 5.2%
IC50 VEGF-A-stimulated growth higher than FGF2-stimulated growth (VEGF-A-stimulated HUVEC; HUVEC): 28 fold
IC50 (VEGF-A-stimulated HUVEC; read-out: −logIC50 inhibition of VEGF-A-stimulated growth (converted)): 501 nM
IC50 (VEGF-A-stimulated HUVEC; HUVEC, read-out: IC50 inhibition of VEGF-A-stimulated growth): 453 nM
IC50 (FGF2-stimulated HUVEC): 16 nM
IC50 (VEGFR3 [13]): 130 nM
maximally tolerated dose ([14]; BID): 50 mg/kg
maximally tolerated dose ([14]; QD): 75 mg/kg
inhibition of ERK1/2 phosphorylation [15]: less sensitive
IC50 (CSF1R [16]): 166 nM
ERK1/2 phosphorylation [17]: preventing ERK1/2 phosphorylation in the same concentration range
auto-phosphorylation of FGFR2 [18]: effectively inhibited
partial responses (PR) [19]: 12.5%
inhibition of ERK1/2 phosphorylation [20]: less sensitive
T/C volume (LXFL1121 human NSCLC PDX; 50 mg/kg BID p.o., 22 days): 0.26
antitumor efficacy (C51 colon tumors [21]; 25 mg/kg QD p.o., 13 days): not efficacious
partial response (PR) rate (RECIST) (C51 colon tumors [21]; 50 mg/kg QD): 22%
stable disease (SD) rate (RECIST) (C51 colon tumors [21]; 75 mg/kg QD, 1/9 mice): 11%
partial response (PR) rate (RECIST) (C51 colon tumors [21]; 75 mg/kg QD): 22%
IC50 (FGFR2 [22]): < 1 nM
number of additional kinases besides FGFR1-4 with competition binding >65% (468 kinase targets; 100 nM rogaratinib): 4
number of additional kinases besides FGFR1-4 with competition binding >65% (468 kinase targets; 1 μM rogaratinib): 18
inhibition of ERK1/2 phosphorylation (p-ERK1/2 in RT-112 cells): potent inhibition
Kd (VEGFR3 [23]): 150 nM
inhibition of ERK1/2 phosphorylation [24]: potent inhibition
IC50 (TIE2): 1300 nM
unbound Cmax concentration in plasma ([25]; single dose 35 mg/kg after 10-day drug-free period): 123 nM
unbound Cmax concentration in plasma ([25]; single dose 50 mg/kg after 10-day drug-free period): 294 nM
unbound Cmax concentration in plasma ([25]; single dose 65 mg/kg after 10-day drug-free period): 357 nM
complete responses (CR) (RECIST) (C51 colon tumors [26]; 10 mg/kg QD, 2/8): 25%
stable disease (SD) (RECIST) (C51 colon tumors [26]; 50 mg/kg QD, 1/8): 12.5%
complete responses (CR) (RECIST) (C51 colon tumors [26]; 50 mg/kg QD, 3/8): 37.5%
auto-phosphorylation of FGFR4 [27]: inhibited auto‐phosphorylation of FGFR4
Kd (VEGFR1): 190 nM
binding affinity to VEGFRs lower compared to FGFR1 (VEGFR1; VEGFR1, VEGFR3 vs FGFR1 Kd): about 100 fold
